The values that follow come from PubChem BioAssay (NCI).

Common to all, as to assay: growth of human tumour cells (NCI), 48 h
Assay [1] concerns ACHN renal.
The subject of assay [2] is BT-549 breast.
The subject of assay [3] is CAKI-1 renal.
Assay [4] concerns HT29 colon.
Assay [5] concerns KM12 colon.
Assay [6] concerns M14 melanoma.
Assay [7] relates to MCF7 breast.
In assay [8] the test system is MDA-N.
Assay [9] deals with NCI-H226 lung.
Assay [10] has as its system NCI-H522 lung.
Assay [11] deals with OVCAR-8 ovarian.
Assay [12] has as its system PC-3 prostate.
In assay [13] the test system is SF-268 CNS.
Assay [14] deals with SNB-75 CNS.

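These data come from cells grown in 96-well plates and exposed to compound for 48 hours at five concentrations. Abbreviation: GI50, concentration required for 50% inhibition of growth. Definition used: TGI = concentration required for complete inhibition of growth.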 Where a SMILES comes first, the peptide text is derived from it. The star is where a group is joined. Boc = CC(C)(C)OC(=O)*

For `CCCCCCCCCCCCCCCCCCNc1ccn(C2OC(COP(=O)(O)OCC3OC(n4ccc(NC(=O)CCCCCCCCCCCCCCCCC)nc4=O)C(OC(C)=O)C3OC(C)=O)C(OC(C)=O)C2OC(C)=O)c(=O)n1` (stereo not given), the TGI in assay [1], in assay [2], in assay [3], in [4], in assay [5] and in [6] was more than 100 µM throughout. The TGI in assay [7], in [8], in [9], in [10], in [11] and in assay [12] was more than 100 µM throughout. The TGI in assay [13] and in assay [14] was more than 100 µM throughout.

Consider `O=C(CCCCCCCCC(=O)NN1C(=O)/C(=C\c2ccc(O)c(O)c2)SC1c1ccc(Cl)cc1)NN1C(=O)/C(=C\c2ccc(O)c(O)c2)SC1c1ccc(Cl)cc1` (stereo not given), for which the TGI in assay [1] was 71.8 µM; in assay [2], more than 100 µM; in [3], more than 88.1 µM; in [4], more than 100 µM; in assay [5], more than 100 µM; in assay [6], more than 100 µM. Further, the TGI is more than 100 µM in assay [7]; more than 100 µM in assay [8]; more than 100 µM in assay [9]; 32.5 µM in [10]; 34 µM in [11]; more than 100 µM in assay [12]. Moreover, the TGI was more than 62.7 µM in assay [13] and more than 100 µM in [14].

Consider `Cc1ccc(C(=O)Nc2ccc(CP(=O)(O)O)cc2CP(=O)(O)O)cc1NC(=O)c1cccc(N)c1`, for which the TGI in [1], in assay [2], in [3], in assay [4], in assay [5] and in [6] was more than 100 µM each time. Further, the TGI in assay [7], in [8], in [9], in assay [10], in [11] and in [12] was more than 100 µM in each case. Also, the TGI in [13] and in assay [14] was more than 100 µM in each case.

Take `C=C1CC(COc2cc(=O)oc3ccccc23)(c2ccccc2)OC1=O` (stereo not given): the TGI in [1] amounted to 4.54 µM; in assay [2], 2.97 µM; in assay [3], 2.67 µM; in assay [4] it was 3.4 µM; in [5], 12.7 µM; in assay [6] it was 3.3 µM. In addition, the TGI in assay [7] is 2.14 µM; in assay [8] it was 5.57 µM; in assay [9], 19.3 µM; in assay [10], 3.88 µM; in [11], 4.87 µM; in [12] it was 5.9 µM. Also, the TGI in assay [13] was determined as 29.7 µM; in [14], 12.3 µM.

Take `COc1cc(O)c(/C=N/N=C(\N)NO)c(OC)c1`: the TGI in [1], in assay [2], in [3], in assay [4], in assay [5] and in assay [6] was more than 10 µM in each case. In addition, the TGI in [7], in assay [8], in assay [9], in assay [10], in assay [11] and in [12] was more than 10 µM in each case. Also, the TGI in assay [13] and in assay [14] was more than 10 µM throughout.

Take `COC(=O)CNC(=O)C(Cc1ccccc1)NC(=O)C(CCSC)NC(=O)C(Cc1ccc(O)cc1)NC(=O)OC(C)(C)C` (stereo not given) (Boc-YMFG-OMe; configuration not given here): the TGI in [1], in assay [2], in [3], in assay [4], in [5] and in assay [6] was more than 100 µM in each case. Moreover, the TGI in assay [7] was more than 100 µM; in assay [8] it was more than 100 µM; in [9], more than 100 µM; in assay [10], 43 µM; in [11], more than 100 µM; in [12] it was more than 100 µM. For the same compound, the results for the TGI in [13] and in assay [14] were 87.7 µM and more than 100 µM, respectively.

As to `COc1ccc(C2CC(c3c(O)ccc4ccccc34)=NN2c2ccc([N+](=O)[O-])cc2[N+](=O)[O-])cc1OC` (stereo not given), the TGI is 92.2 µM in assay [1]; more than 100 µM in assay [2]; 69.1 µM in assay [3]; 38.3 µM in assay [4]; more than 76.6 µM in [5]; more than 100 µM in assay [6]. The TGI in assay [7] is more than 91.7 µM; in [8], more than 100 µM; in assay [9], 48.9 µM; in assay [10] it was more than 42.9 µM; in assay [11], 27.3 µM; in assay [12], more than 70.3 µM. The TGI in assay [13] was more than 100 µM; in assay [14], 70.8 µM.

For `CN(C)/N=N/c1nc2c(c(=O)n(C)c(=O)n2C)n1C`, the TGI in assay [1], in assay [2], in assay [3], in assay [4], in assay [5] and in [6] was more than 100 µM each time. The TGI in assay [7], in assay [8], in [9], in [10], in assay [11] and in assay [12] was more than 100 µM each time. The TGI in assay [13] and in assay [14] was more than 100 µM each time.

Consider `CN1C(=O)C2C(=O)N(Cc3ccccc3)CC(=O)N2c2cccnc21` (stereo not given), for which the TGI in assay [1], in [2], in [3], in assay [4], in assay [5] and in [6] was more than 100 µM each time. In addition, the TGI in assay [7], in [8], in assay [9], in assay [10], in [11] and in [12] was more than 100 µM in each case. For the same compound, the TGI in [13] and in assay [14] was more than 100 µM in each case.

Consider `Cc1c(-c2nc3ccccc3[nH]2)c(=O)n(-c2ccccc2)n1C`, for which the TGI in [1], in assay [2], in assay [3], in assay [4], in assay [5] and in assay [6] was more than 100 µM in each case. In addition, the TGI in assay [7], in [8], in assay [9], in [10], in assay [11] and in [12] was more than 100 µM throughout. Besides, the TGI in assay [13] and in assay [14] was more than 100 µM throughout.

As to `Nc1nc2cc3nc(N)c(N)nc3cc2nc1N`, the TGI in assay [1], in assay [2], in [3], in assay [4], in [5] and in [6] was more than 100 µM each time. Moreover, the TGI in [7], in [8], in assay [9], in assay [10], in [11] and in [12] was more than 100 µM throughout. For the same compound, the TGI in assay [13] and in [14] was more than 100 µM throughout.

With `O=C(O)c1cc2c(cc1CC(Cc1ccc3c(c1)CCC3)C(=O)O)CCC2` (stereo not given), the TGI in assay [1], in assay [2], in assay [3], in assay [4], in assay [5] and in assay [6] was more than 100 µM throughout. The TGI in assay [7], in assay [8], in assay [9], in [10], in assay [11] and in assay [12] was more than 100 µM each time. Moreover, the TGI in assay [13] and in [14] was more than 100 µM throughout.

As for `NCC1CCN(c2nc3ccccc3c3c2CCCC3)CC1`, the TGI in [1] came to 25.3 µM; in assay [2], 28 µM; in assay [3], 21.4 µM; in assay [4], 6.22 µM; in [5] it was 15.9 µM; in [6], 3.71 µM. Further, the TGI in assay [7] amounted to 15 µM; in assay [8], 7.92 µM; in [9], 34.1 µM; in assay [10], 19.8 µM; in assay [11], 42.9 µM; in assay [12], 22.5 µM. Besides, the TGI in assay [13] is 22.7 µM; in [14], 22.2 µM.

As to `Brc1ccc(CCNCCN2CCCCC2)cc1`, the TGI in assay [1] is 42.6 µM; in assay [2], 29.4 µM; in assay [3] it was 29.2 µM; in assay [4], 15.4 µM; in assay [5], 30.2 µM; in [6], 29.6 µM. In addition, the TGI in assay [7] was found to be 29.5 µM; in assay [8] it was 23.8 µM; in [9], 59 µM; in [10], 30.3 µM; in assay [11] it was 30.5 µM; in [12], 31.7 µM. Besides, the TGI in assay [13] stood at 33.3 µM; in assay [14] it was 26.3 µM.

Consider `Cc1c(F)c(N)c2c(=O)cc(-c3ccc(NC(=O)CN(C)C)c(F)c3)oc2c1F`, for which the TGI in assay [1] is more than 100 µM; in assay [2], more than 100 µM; in [3] it was more than 66.1 µM; in assay [4], more than 100 µM; in assay [5], more than 100 µM; in assay [6], more than 100 µM. The TGI is more than 66.1 µM in assay [7]; more than 100 µM in [8]; more than 100 µM in assay [9]; more than 100 µM in assay [10]; more than 100 µM in [11]; more than 100 µM in assay [12]. The TGI in [13] and in [14] was more than 100 µM in each case. Also, the GI50 in assay [14] is 32.9 µM.

In the case of `CN(CCC#N)c1ccc(/C=C2\SC(=S)NC2=O)cc1`, the TGI in assay [1] is more than 100 µM; in assay [2], 79.2 µM; in [3], more than 100 µM; in assay [4], more than 100 µM; in [5], more than 100 µM; in assay [6] it was more than 100 µM. Further, the TGI in assay [7], in assay [8], in assay [9], in assay [10], in [11] and in [12] was more than 100 µM each time. Further, the TGI in assay [13] and in assay [14] was more than 100 µM each time.
